Reference: US20230210994A1, “CELL-PENETRATING CONJUGATE SYSTEMS” (Danmarks Tekniske Universitet, priority 2019, published 2023)

Experiments:
Type in all cases: cell-based, mouse
[1] = system: CT-26 cells; test: Internalization of Paclitaxel (PTX) in CT-26 cells measured by flow cytometry
Procedure: There is a remarkable increment in the percentage of cells containing PTX when co-administered with the conjugate, especially after 24 hours incubation. (c) depicts the amount of PTX internalization expressed as mean fluorescence intensity (MFI).

[2] = system: CT26 cells; test: Uptake of Oxaliplatin by CT26 cells measured by ICP-MS; conditions: 30 μM OxPt alone, peaking at 4 h
Procedure: CT26 cells were seeded in 24-well plate (100.000 cells/mL/well) exposed to Oxaliplatin (Ox-Pt, 10 μM and 30 μM) with/and without conjugate the molar ratio of 1:1, 1:3 and 3:1 respectively. After 1, 4, 24 hours of incubation, media was discarded and the cells were washed with PBS twice, once with heparin (to remove anything associated externally with the cell membrane) and once more with PBS. Then the cells were detached from the wells using trypsin and cells were counted. Finally, each sample was diluted in HCl acid and further diluted in 2% HCl with (0.5 ppb Ir), then Pt content was measured in the ICP-MS.

[3] = system: CT-26 cells; test: Ethidium-homodimer internalization in CT-26 cells, fluorescent confocal microscopy; conditions: EtDi alone, without conjugate
Procedure: CT-26 cells in culture were co-incubated with the conjugate system, 4-hydroxybutyl L-tryptophanate, (1 mg/ml) and Etidium-homodimer (2 μl/ml) for 1 hour and observed under fluorescent confocal microscope. Working ratio was set as 1:3 and two reaction sets comprising of higher (80 μl) loading and standard loading (40 μl ) were performed. Emission bandwidth was set as 490-550nm and 590-680 nm.

## CC(=O)O[C@H]1C(=O)[C@@]2(C)[C@H]([C@H](OC(=O)c3ccccc3)[C@]3(O)C[C@H](OC(=O)[C@H](O)[C@@H](NC(=O)c4ccccc4)c4ccccc4)C(C)=C1C3(C)C)[C@]1(OC(C)=O)CO[C@@H]1C[C@@H]2O [PTX, Paclitaxel, reference compound]
[1]; PTX 10 μM alone
  % cells uptake (1 h), CT-26 cells with PTX internalized: 2.3%
  % cells uptake (4 h), CT-26 cells with PTX internalized: 2.4%
  % cells with uptake (24 h), CT-26 cells with PTX internalized: 7.7%
[1]; PTX 30 μM alone
  % cells uptake (1 h), CT-26 cells with PTX internalized: 2.2%
  % cells uptake (4 h), CT-26 cells with PTX internalized: 3.0%
  % cells with uptake (24 h), CT-26 cells with PTX internalized: 7.6%

## O=C1[O][Pt]2([NH][C@@H]3CCCC[C@H]3[NH]2)[O]C1=O [OxPt, Oxaliplatin, reference compound]
[2]
  OxPt uptake over time: no apparent increase

## Nc1ccc2c(c1)c(-c1ccccc1)[n+](CCCNCCNCCC[n+]1c(-c3ccccc3)c3cc(N)ccc3c3ccc(N)cc31)c1cc(N)ccc21 [EtDi, Ethidium-homodimer, reference compound]
[3]
  cell penetration of EtDi: cannot penetrate into the cell
